Test results taken from ChEMBL document CHEMBL3739369, “Identification of Elaiophylin Skeletal Variants from the Indonesian Streptomyces sp. ICBB 9297” (2015).
In brackets after ≈: the same amount, converted by molar mass.

What was measured:
Assay type in all cases: functional
[1] = tested on: Mycolicibacterium smegmatis; assay: Antimicrobial activity against Mycobacterium smegmatis ATCC 14468 for 17 to 48 hrs by MTT assay
Staphylococcus aureus = assay: Antimicrobial activity against Staphylococcus aureus ATCC 12600 for 17 to 48 hrs by MTT assay
Bacillus subtilis = assay: Antimicrobial activity against Bacillus subtilis ATCC 6051 for 17 to 48 hrs by MTT assay
Pseudomonas aeruginosa = assay: Antimicrobial activity against Pseudomonas aeruginosa ATCC 9721 for 17 to 48 hrs by MTT assay
Escherichia coli = assay: Antimicrobial activity against Escherichia coli ATCC 11775 for 17 to 48 hrs by MTT assay

| SMILES | MIC [1] [µg/mL] | MIC (Staphylococcus aureus) [µg/mL] | MIC (Bacillus subtilis) [µg/mL] | MIC (Pseudomonas aeruginosa) [µg/mL] | MIC (Escherichia coli) [µg/mL] |
| --- | --- | --- | --- | --- | --- |
| CN[C@@H]1[C@@H](O[C@H]2O[C@H](CO)[C@@H](N)[C@H](O)[C@H]2O)O[C@H]2C[C@@H](N)[C@@H](O[C@H]3[C@H](O)[C@@H](O)[C@H](N)C[C@@H]3N)O[C@@H]2[C@@H]1O | 0.39 (≈ 0.723 µM) |  |  |  |  |
| CC[C@@H]1[C@@H](C)O[C@@](OC)([C@@H](C)[C@H](O)[C@H](C)[C@H]2OC(=O)/C=C/C=C/[C@H](C)[C@@H]([C@@H](C)[C@@H](O)[C@H](C)[C@@]3(O)C[C@@H](O[C@H]4C[C@H](O)[C@H](O)[C@H](C)O4)[C@H](CC)[C@@H](C)O3)OC(=O)/C=C/C=C/[C@@H]2C)C[C@H]1O[C@H]1C[C@H](O)[C@H](O)[C@H](C)O1 | > 100 | 1.56 (≈ 1.5 µM) | > 100 | > 100 | > 100 |
| CC[C@@H]1[C@@H](C)O[C@@](OC)([C@@H](C)[C@H](O)[C@H](C)[C@H]2OC(=O)/C(C)=C/C=C/[C@H](C)[C@@H]([C@@H](C)[C@@H](O)[C@H](C)[C@@]3(OC)C[C@@H](O[C@H]4C[C@H](O)[C@H](O)[C@H](C)O4)[C@H](CC)[C@@H](C)O3)OC(=O)/C(C)=C/C=C/[C@@H]2C)C[C@H]1O[C@H]1C[C@H](O)[C@H](O)[C@H](C)O1 | > 100 | 3.13 (≈ 2.89 µM) | > 100 | > 100 | > 100 |
| CC[C@@H]1[C@@H](C)O[C@@](O)([C@@H](C)[C@H](O)[C@H](C)[C@H]2OC(=O)/C=C/C=C/[C@H](C)[C@@H]([C@@H](C)[C@@H](O)[C@H](C)[C@@]3(O)C[C@@H](O[C@H]4C[C@H](O)[C@H](O)[C@H](C)O4)[C@H](CC)[C@@H](C)O3)OC(=O)/C(C)=C/C=C/[C@@H]2C)C[C@H]1O[C@H]1C[C@H](O)[C@H](O)[C@H](C)O1 | 6.25 (≈ 6.01 µM) | 0.78 (≈ 0.751 µM) | > 100 | > 100 | > 100 |
| CC[C@@H]1[C@@H](C)O[C@@](OC)([C@@H](C)[C@H](O)[C@H](C)[C@H]2OC(=O)/C=C/C=C/[C@H](C)[C@@H]([C@@H](C)[C@@H](O)[C@H](C)[C@@]3(OC)C[C@@H](O[C@H]4C[C@H](O)[C@H](O)[C@H](C)O4)[C@H](CC)[C@@H](C)O3)OC(=O)/C(C)=C/C=C/[C@@H]2C)C[C@H]1O[C@H]1C[C@H](O)[C@H](O)[C@H](C)O1 | 6.25 (≈ 5.86 µM) | 1.56 (≈ 1.46 µM) | > 100 | > 100 | > 100 |
| CC[C@@H]1[C@@H](C)O[C@@](O)([C@@H](C)[C@H](O)[C@H](C)[C@H]2OC(=O)/C=C/C=C/[C@H](C)[C@@H]([C@@H](C)[C@@H](O)[C@H](C)[C@@]3(O)C[C@@H](O[C@H]4C[C@H](O)[C@H](O)[C@H](C)O4)[C@H](CC)[C@@H](C)O3)OC(=O)/C=C/C=C/[C@@H]2C)C[C@H]1O[C@H]1C[C@H](O)[C@H](O)[C@H](C)O1 | > 100 | 0.78 (≈ 0.761 µM) | > 100 | > 100 | > 100 |
| CC[C@@H]1[C@@H](C)O[C@@](OC)([C@@H](C)[C@H](O)[C@H](C)[C@H]2OC(=O)/C=C/C=C/[C@H](C)[C@@H]([C@@H](C)[C@@H](O)[C@H](C)[C@@]3(OC)C[C@@H](O[C@H]4C[C@H](O)[C@H](O)[C@H](C)O4)[C@H](CC)[C@@H](C)O3)OC(=O)/C=C/C=C/[C@@H]2C)C[C@H]1O[C@H]1C[C@H](O)[C@H](O)[C@H](C)O1 | > 100 | 1.56 (≈ 1.48 µM) | > 100 | > 100 | > 100 |
| CC1(C)S[C@@H]2[C@H](NC(=O)[C@H](N)c3ccccc3)C(=O)N2[C@H]1C(=O)O [AMPICILLIN] | > 100 | 0.78 (≈ 2.23 µM) | 0.78 (≈ 2.23 µM) | 1.56 (≈ 4.46 µM) | 6.25 (≈ 17.9 µM) |
